Results reported in patent publication US12655158B2, “Biomimetic G-quartet compounds” (CENTRE NATIONAL DE LA RECHERCHE SCIENTIFIQUE, priority 2020, dated 2026).

Tested on: doubly labelled quadruplex F21T (F-21-T, FAM-d[GGGTTAGGGTTAGGGTTAGGG]-TAMRA)
Experiment: FRET-melting assay with F21T quadruplex
Type: binding
Settings: F21T 0.2 μM, Caco.K buffer, 5 molar equivalents of TASQ; means of 3 experiments
Protocol: The lyophilized DNA strands (purchased from Eurogentec, Seraing, Belgium) were firstly diluted at 500 μM in deionized water (18.2 MΩ·cm resistivity). The DNA batch was prepared in a Caco.K buffer, comprised of 10 mM lithium cacodylate buffer (pH 7.2) plus 10 mM KCl/90 mM LiCl.
The quadruplex structure was prepared by mixing 40 μL of the constitutive strand (500 μM) with 8 μL of a lithium cacodylate buffer solution (100 mM, pH 7.2), plus 8 μL of a KCl/LiCl solution (100 mM/900 mM) and 24 μL of water. The final DNA concentration was theoretically 250 μM. The actual concentration of the DNA was determined through a dilution to 1 μM theoretical concentration through UV spectral analysis at 260 nm (after 5 min at 90° C.) with the following molar extinction coefficient values: 268300 M^−1·cm^−1 (F21 T). The higher-order DNA structure was folded as follows: solutions were heated (90° C., 5 min), cooled on ice (7 h) and then stored at least overnight (4° C.). […] Final data were analyzed with Excel (Microsoft Corp.) and OriginPro® 9.1 (OriginLab Corp.). […]
The apparent affinity of each G4-ligands is quantified via fluorescence resonance energy transfer (FRET)-melting experiments. […]

Compound	Thermal stabilization ΔT1/2 [°C]
NCCN(CC(=O)NCCNC(=O)CN1CCN(CC(=O)NCCNC(=O)CN(CCN)C(=O)Cn2cnc3c(=O)[nH]c(N)nc32)CCN(CC(=O)NCCNC(=O)CN(CCN)C(=O)Cn2cnc3c(=O)[nH]c(N)nc32)CCN(CC(=O)NCCNC(=O)CN(CCN)C(=O)Cn2cnc3c(=O)[nH]c(N)nc32)CC1)C(=O)Cn1cnc2c(=O)[nH]c(N)nc21 [^PNADOTASQ]	9.1
NCCN(CC(=O)NCCNC(=O)CN1CCN(CC(=O)NCCNC(=O)CN(CCN)C(=O)Cn2cnc3c(=O)[nH]c(N)nc32)CCN(CC(=O)NCCNC(=O)CN(CCN)C(=O)Cn2cnc3c(=O)[nH]c(N)nc32)C(CNC(=O)CCCC[C@H]2SCC3NC(=O)NC32)CN(CC(=O)NCCNC(=O)CN(CCN)C(=O)Cn2cnc3c(=O)[nH]c(N)nc32)CC1)C(=O)Cn1cnc2c(=O)[nH]c(N)nc21 (some centres unmarked) [BioTASQ]	2.2
